Measured values reported in ChEMBL document CHEMBL4507319 (2021).

Columns and labels:
Conditions in all cases: Compound concentration 1000.0 nM
[1] = target: Insulin receptor (Homo sapiens) (UniProt P06213)
[2] = target: Serine/threonine-protein kinase B-raf (Homo sapiens) (UniProt P15056)
[3] = target: Serine/threonine-protein kinase PAK 3 (Homo sapiens) (UniProt O75914)
[4] = target: Phosphatidylinositol 4,5-bisphosphate 3-kinase catalytic subunit beta isoform (Homo sapiens) (UniProt P42338)
[5] = target: T1, Mitogen-activated protein kinase kinase kinase 5 (Homo sapiens) (UniProt Q99683)
T1 sequence (whole entry): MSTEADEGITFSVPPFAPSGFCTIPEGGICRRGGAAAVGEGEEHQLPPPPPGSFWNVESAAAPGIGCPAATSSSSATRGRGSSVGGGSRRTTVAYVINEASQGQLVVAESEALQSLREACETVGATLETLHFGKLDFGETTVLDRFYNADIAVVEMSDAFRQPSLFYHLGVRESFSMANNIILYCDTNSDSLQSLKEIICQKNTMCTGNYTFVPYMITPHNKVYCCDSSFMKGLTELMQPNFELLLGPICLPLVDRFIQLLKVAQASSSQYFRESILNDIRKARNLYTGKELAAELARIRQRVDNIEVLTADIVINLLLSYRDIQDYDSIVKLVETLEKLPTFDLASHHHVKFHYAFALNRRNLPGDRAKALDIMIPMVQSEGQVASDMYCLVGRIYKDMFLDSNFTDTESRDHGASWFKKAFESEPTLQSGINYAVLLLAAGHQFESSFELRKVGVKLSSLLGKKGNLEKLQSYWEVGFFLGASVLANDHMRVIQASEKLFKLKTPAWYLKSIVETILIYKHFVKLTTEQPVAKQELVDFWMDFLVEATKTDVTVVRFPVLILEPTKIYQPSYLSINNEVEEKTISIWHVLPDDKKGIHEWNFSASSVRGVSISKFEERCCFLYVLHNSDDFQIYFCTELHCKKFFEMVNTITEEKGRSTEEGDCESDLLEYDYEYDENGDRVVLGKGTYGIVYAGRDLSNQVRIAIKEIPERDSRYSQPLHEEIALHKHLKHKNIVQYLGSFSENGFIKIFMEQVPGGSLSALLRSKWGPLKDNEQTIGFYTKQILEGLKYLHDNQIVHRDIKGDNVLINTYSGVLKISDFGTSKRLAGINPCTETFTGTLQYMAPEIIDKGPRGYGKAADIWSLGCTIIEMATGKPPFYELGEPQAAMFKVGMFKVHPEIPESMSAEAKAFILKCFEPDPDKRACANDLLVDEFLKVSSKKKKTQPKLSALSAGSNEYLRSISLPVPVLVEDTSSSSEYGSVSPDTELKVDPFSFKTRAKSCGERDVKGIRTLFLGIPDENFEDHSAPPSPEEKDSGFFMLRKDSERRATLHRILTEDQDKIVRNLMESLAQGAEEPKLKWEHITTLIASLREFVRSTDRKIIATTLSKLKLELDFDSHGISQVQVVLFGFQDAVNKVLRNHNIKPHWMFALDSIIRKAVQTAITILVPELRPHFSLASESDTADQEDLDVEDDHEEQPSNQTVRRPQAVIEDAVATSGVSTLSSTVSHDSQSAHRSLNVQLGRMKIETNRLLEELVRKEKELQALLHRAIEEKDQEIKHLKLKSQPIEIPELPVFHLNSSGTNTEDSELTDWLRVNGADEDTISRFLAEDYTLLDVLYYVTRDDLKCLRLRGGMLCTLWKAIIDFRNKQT

[6] = target: Serine/threonine-protein kinase WNK1 (Homo sapiens) (UniProt Q9H4A3)
[7] = target: Ephrin type-A receptor 5 (Homo sapiens) (UniProt P54756)
[8] = target: Mitogen-activated protein kinase 9 (Homo sapiens) (UniProt P45984)
[9] = test system: Leucine-rich repeat serine/threonine-protein kinase 2 (Homo sapiens), Q5S007 [G2019S]
[10] = target: T2, SNF-related serine/threonine-protein kinase (Homo sapiens) (UniProt Q9NRH2)
T2 sequence (whole entry): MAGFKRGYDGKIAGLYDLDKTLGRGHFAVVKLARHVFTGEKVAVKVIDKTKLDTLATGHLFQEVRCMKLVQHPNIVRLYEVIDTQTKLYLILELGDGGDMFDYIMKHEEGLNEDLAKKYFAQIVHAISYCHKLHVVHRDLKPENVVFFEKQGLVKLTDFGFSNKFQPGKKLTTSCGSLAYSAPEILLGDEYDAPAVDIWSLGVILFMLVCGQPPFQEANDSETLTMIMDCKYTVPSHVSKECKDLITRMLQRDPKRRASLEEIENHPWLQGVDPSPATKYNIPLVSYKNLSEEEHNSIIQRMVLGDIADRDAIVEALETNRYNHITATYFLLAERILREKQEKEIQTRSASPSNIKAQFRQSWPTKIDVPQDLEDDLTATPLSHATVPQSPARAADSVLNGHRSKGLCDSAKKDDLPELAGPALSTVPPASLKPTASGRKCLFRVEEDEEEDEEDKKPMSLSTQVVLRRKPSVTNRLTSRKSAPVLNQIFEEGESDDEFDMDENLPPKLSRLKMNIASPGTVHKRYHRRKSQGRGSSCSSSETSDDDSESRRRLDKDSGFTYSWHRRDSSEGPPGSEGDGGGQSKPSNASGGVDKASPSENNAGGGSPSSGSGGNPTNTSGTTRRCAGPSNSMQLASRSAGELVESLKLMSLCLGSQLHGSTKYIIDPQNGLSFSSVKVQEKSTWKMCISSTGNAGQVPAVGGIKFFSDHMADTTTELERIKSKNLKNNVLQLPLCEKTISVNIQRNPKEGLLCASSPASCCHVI

Insulin receptor (Homo sapiens), sequence (P06213 28-758 limits assumed): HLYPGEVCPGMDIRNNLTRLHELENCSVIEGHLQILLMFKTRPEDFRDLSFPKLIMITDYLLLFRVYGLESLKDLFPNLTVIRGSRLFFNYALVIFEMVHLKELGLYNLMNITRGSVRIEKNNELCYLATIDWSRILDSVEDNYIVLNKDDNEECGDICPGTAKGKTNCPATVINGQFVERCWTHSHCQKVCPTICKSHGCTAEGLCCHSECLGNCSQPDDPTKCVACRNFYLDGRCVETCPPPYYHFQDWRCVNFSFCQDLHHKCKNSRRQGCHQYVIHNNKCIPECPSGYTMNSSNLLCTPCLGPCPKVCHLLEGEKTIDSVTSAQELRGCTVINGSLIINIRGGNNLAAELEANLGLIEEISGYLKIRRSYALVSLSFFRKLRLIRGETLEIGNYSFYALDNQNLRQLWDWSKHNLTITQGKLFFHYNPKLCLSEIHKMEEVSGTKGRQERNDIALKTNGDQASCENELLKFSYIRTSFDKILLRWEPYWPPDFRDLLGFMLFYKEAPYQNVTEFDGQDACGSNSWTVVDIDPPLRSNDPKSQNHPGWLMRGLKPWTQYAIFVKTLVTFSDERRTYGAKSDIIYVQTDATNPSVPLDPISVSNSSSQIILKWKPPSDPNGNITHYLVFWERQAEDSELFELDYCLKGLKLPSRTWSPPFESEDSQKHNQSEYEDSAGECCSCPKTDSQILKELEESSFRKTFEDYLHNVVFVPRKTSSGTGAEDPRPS
Insulin receptor (Homo sapiens), sequence (P06213 763-1382 limits assumed): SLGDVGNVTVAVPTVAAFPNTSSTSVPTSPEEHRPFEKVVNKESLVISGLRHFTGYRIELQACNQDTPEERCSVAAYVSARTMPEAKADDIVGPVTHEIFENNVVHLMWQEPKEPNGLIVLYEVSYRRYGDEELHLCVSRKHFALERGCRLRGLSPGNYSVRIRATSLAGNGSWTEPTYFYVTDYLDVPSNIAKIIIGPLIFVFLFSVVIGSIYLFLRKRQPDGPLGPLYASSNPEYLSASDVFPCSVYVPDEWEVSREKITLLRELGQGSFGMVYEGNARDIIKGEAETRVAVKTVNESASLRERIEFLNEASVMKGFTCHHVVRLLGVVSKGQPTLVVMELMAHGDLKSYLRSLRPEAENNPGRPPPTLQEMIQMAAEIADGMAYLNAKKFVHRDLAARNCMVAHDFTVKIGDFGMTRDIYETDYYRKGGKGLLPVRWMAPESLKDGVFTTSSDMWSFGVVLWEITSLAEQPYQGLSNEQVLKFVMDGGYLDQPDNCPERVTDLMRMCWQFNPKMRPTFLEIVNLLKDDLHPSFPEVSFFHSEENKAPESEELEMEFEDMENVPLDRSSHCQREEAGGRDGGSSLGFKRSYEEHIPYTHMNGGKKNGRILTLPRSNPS
Ephrin type-A receptor 5 (Homo sapiens), sequence (P54756 whole entry): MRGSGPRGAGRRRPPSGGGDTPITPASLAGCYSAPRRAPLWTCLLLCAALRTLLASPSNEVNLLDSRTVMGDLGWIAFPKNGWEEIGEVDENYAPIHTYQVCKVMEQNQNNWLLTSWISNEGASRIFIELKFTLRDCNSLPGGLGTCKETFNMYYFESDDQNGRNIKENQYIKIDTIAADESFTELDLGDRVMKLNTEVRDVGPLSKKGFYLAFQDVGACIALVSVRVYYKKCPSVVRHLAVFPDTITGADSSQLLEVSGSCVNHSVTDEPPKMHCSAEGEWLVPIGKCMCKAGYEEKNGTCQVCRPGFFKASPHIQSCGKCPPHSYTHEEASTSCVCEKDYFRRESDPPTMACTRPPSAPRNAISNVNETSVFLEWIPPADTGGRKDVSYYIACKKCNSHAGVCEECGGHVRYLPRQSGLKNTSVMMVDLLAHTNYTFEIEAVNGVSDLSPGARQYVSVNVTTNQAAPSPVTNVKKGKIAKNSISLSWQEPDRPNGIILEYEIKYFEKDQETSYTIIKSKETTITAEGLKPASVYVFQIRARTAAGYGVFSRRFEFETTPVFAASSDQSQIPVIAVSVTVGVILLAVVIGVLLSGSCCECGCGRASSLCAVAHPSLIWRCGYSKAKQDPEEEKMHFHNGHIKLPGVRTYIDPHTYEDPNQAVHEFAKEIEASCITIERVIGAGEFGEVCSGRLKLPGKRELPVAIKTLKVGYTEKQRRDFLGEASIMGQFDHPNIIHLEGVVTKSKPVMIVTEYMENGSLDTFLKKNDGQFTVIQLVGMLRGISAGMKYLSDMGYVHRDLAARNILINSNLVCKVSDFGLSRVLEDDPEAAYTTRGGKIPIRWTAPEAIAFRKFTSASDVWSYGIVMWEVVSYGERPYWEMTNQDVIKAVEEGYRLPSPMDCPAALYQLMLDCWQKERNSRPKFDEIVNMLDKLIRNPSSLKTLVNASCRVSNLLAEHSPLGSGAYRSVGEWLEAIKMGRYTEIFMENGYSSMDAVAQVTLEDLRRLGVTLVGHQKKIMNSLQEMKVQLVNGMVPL
Phosphatidylinositol 4,5-bisphosphate 3-kinase catalytic subunit beta isoform (Homo sapiens), sequence (P42338 whole entry, looked up, canonical isoform): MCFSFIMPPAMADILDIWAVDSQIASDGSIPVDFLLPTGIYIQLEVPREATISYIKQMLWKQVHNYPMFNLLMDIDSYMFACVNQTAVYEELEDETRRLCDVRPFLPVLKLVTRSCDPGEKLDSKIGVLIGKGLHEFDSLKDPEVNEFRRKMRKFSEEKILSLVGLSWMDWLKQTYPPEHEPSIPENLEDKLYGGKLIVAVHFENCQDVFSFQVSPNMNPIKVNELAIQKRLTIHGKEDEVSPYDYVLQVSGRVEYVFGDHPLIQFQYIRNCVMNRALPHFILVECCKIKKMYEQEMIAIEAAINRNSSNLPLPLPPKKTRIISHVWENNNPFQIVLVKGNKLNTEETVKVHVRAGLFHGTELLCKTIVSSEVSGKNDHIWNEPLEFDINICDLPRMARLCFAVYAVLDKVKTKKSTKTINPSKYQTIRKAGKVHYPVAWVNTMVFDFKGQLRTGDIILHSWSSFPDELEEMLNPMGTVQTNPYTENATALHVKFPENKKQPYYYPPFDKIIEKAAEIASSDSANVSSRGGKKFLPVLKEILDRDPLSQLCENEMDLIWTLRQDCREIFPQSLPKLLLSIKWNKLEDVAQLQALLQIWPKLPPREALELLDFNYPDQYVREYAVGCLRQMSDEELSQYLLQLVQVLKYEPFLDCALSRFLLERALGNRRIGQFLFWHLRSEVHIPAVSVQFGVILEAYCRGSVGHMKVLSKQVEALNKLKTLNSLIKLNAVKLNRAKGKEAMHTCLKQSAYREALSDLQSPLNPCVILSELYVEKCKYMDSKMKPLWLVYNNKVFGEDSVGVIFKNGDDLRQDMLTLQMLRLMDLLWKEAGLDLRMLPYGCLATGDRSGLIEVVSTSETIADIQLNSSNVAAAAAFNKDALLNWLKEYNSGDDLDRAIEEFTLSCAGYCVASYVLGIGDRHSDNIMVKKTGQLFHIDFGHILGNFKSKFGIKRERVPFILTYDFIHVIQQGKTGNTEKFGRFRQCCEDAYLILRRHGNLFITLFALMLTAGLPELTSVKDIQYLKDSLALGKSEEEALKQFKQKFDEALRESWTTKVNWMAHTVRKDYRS
Serine/threonine-protein kinase B-raf (Homo sapiens), sequence (P15056 whole entry): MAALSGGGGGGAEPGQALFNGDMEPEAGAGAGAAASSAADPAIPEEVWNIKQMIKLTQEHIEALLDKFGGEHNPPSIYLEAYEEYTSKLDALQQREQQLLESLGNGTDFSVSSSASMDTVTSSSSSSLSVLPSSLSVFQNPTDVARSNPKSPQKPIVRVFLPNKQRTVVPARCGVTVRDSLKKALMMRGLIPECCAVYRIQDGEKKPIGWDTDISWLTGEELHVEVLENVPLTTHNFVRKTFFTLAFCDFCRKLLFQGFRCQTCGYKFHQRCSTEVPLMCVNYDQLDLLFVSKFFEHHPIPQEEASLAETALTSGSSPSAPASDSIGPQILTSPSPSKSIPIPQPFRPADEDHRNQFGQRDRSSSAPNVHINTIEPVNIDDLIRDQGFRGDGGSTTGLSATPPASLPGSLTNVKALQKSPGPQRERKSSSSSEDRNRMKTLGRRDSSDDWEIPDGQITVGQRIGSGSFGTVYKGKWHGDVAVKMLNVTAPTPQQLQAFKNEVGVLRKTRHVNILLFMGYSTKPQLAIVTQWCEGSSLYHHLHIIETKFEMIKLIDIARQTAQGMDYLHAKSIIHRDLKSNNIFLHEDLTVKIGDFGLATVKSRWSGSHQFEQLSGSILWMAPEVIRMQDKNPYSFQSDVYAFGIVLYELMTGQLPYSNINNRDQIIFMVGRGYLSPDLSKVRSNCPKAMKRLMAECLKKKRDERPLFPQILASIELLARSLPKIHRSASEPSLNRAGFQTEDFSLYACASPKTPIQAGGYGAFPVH
Serine/threonine-protein kinase PAK 3 (Homo sapiens), sequence (O75914 whole entry, looked up, canonical isoform): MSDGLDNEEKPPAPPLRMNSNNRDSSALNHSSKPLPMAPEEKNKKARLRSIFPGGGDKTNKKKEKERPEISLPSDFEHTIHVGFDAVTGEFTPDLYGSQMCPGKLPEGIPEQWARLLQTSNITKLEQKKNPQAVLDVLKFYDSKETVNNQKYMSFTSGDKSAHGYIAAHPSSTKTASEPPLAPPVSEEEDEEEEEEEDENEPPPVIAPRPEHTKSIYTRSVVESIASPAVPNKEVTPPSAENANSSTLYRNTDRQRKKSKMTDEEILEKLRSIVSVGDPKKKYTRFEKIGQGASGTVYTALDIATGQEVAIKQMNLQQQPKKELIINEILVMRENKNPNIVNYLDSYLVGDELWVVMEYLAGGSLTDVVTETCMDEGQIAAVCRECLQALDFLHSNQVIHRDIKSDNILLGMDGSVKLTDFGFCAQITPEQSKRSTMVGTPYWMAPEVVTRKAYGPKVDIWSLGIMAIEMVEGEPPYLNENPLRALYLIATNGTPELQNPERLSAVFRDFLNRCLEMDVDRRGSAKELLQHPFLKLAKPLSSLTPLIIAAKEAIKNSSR

Compound | residual activity [1] [%] | residual activity [2] [%] | residual activity [3] [%] | residual activity [4] [%] | residual activity [5] [%] | residual activity [6] [%] | residual activity [7] [%] | residual activity [8] [%] | residual activity [9] [%] | residual activity [10] [%]
CCc1ccccc1C(=O)Nc1n[nH]c2c(C)c(F)c(C3C(C#N)=C(C)N(C)C(C)=C3C#N)cc12 [BAY-3827] | 100 | 78 | 86 | 100 | 100 | 100 | 87 | 67 | 100 | 100
CC1=C(C#N)C(c2ccc3c(c2)c(NC(=O)c2ccccc2C)nn3C)C(C#N)=C(C)N1 [BAY-974] | 100 | 47 | 67 | 86 | 89 | 82 | 77 | 73 | 100 | 100
